Holding throughout (type): in vivo
The subject of assay [1] is gastrointestinal nematodes (trichostrongyle, Strongyloides, Trichuris, Nematodirus eggs). The assay can be described thus: Sheep Test I: fecal egg per gram (EPG) counts. The following applies: for % Change, Strongyles EPG-5 day vs EPG-pre, Total/Mean / Strongyles EPG-5 day (22-Jan), Total/Mean / % Change, Strongyles EPG-7 day vs EPG-pre, Total/Mean / Strongyles EPG-7 day (24-Jan), Total/Mean: group mean; for % Change, Strongyles EPG-5 day vs EPG-pre, Total/Mean / Strongyles EPG-5 day (22-Jan), Total/Mean / Strongyles EPG-5 day (22-Jan): 5 days after treatment; for % Change, Strongyles EPG-7 day vs EPG-pre, Total/Mean / Strongyles EPG-7 day (24-Jan), Total/Mean / % Change, Strongyles EPG-7 day vs EPG-pre / Strongyles EPG-7 day (24-Jan): 7 days after treatment; for Strongyles EPG-5 day (22-Jan) / % Change, Strongyles EPG-7 day vs EPG-pre / Strongyles EPG-7 day (24-Jan): individual sheep. On the procedure:
Sheep naturally infected with a variety of gastrointestinal nematodes are purchased from local sources and are transported to the test site. The animals are housed in a manner to preclude further infection by nematode larvae. The animals are evaluated for the presence of adequate nematode burdens by performing a standard fecal egg per gram (EPG) count. Eggs are differentiated into the following groups: trichostrongyle (strongyle), Strongyloides, Trichuris, or Nematodinis. Only sheep judged by the study parasitologist to have adequate nematode infections are retained as test subjects.
The sheep are fed good quality hay (no concentrated rations) and water ad libitum. Following a five-day acclimation period, the sheep are randomly assigned by EPG count into treatment groups which include non-treated Negative control (placebo); Positive Control (commercially available ivermectin for sheep): and various anthelmintic compounds of the present invention (test compound) dissolved in DMSO. The first replicate of 10 animals is randomly assigned to groups 1-10; the second replicate of 10 animals is randomly assigned to groups 1-10; and the third replicate of 10 animals is randomly assigned to groups 1-10. Thus 10 groups of 3 animals each is created.
The randomization is performed on fecal samples collected 24-48 hours prior to scheduled treatment. The EPG counts are performed according to Zimmerman Research SOP # NMEPG.99.01
On treatment day, the animals are weighed and divided into groups with three animals per group as follows:
The placebo (DMSO), the commercially available drug, and the test anthelmintic compounds are administered in a 3 ml volume by subcutaneous injection using a sterile syringe fitted with a proper needle. The animal is adequately immobilized for injection of the placebo, commercially available drug, or test anthelmintic compound.
Following treatment, the animals are observed at hourly intervals for the first 8 hours, then daily until necropsy. They will continue to be housed in a manner to prevent further nematode infections. Fecal samples are taken for EPG counts on the 5th day and 7th day after treatment.
Seven days following treatment the sheep are humanely slaughtered in accordance with the Guide for the Care and Use of Laboratory Animals (DHEW Publication No. 86-23). Necropsy procedures are according to Zimmerman Research SOP # NCRGIH.99.01, Necropsy for Helminth Recovery, specifically for gastrointestinal nematodes. Fecal samples are taken for EPG counts during the sample collection process on this day. All animals are necropsied, but only the animals from the experimental treatment groups that have a significant egg count reduction on day 5 or day 7 will have intestinal material collected for nematode recovery and identification.

Assay [2] shares this test system. The assay can be described thus: Sheep Test II: fecal egg per gram (EPG) counts. The following applies: for % Change, Strongyles EPG-5 day vs EPG-pre, Total/Mean / Strongyles EPG-5 day (22-May), Total/Mean / % Change, Strongyles EPG-7 day vs EPG-pre, Total/Mean / Strongyles EPG-7 day (24-May), Total/Mean: group mean; for % Change, Strongyles EPG-5 day vs EPG-pre, Total/Mean / Strongyles EPG-5 day (22-May), Total/Mean / Strongyles EPG-5 day (22-May): 5 days after treatment; for % Change, Strongyles EPG-7 day vs EPG-pre, Total/Mean / Strongyles EPG-7 day (24-May), Total/Mean / % Change, Strongyles EPG-7 day vs EPG-pre / Strongyles EPG-7 day (24-May): 7 days after treatment; for Strongyles EPG-5 day (22-May) / % Change, Strongyles EPG-7 day vs EPG-pre / Strongyles EPG-7 day (24-May): individual sheep. The method, then: Sheep naturally infected with a variety of gastrointestinal nematodes are purchased from local sources and are transported to the test site. The animals are housed in a manner to preclude further infection by nematode larvae. The animals are evaluated for the presence of adequate nematode burdens by performing a standard fecal egg per gram (EPG) count. Eggs are differentiated into the following groups: trichostrongyle (strongyle), Strongyloides, Trichuris, or Nematodiris. Only sheep judged by the study parasitologist to have adequate nematode infections are retained as test subjects.
The sheep are fed good quality hay (no concentrated rations) and water ad libitum. Following a five day acclimation period, the sheep are randomly assigned by EPG count into the following treatment groups: Groups 1-9, various anthelmintic compounds of the present invention (test compound) dissolved in DMSO: Group 10, Positive Control (commercially available ivermectin for sheep); Group 11, non-treated Negative control (DMSO only). The first replicate of 1 I animals is randomly assigned to groups 1-1; the second replicate of 11 animals is randomly assigned to groups 1-11; and the third replicate of 11 animals is randomly assigned to groups 1-1. Thus 11 groups of 3 animals each are created.
The randomization is performed on fecal samples collected 24-48 hours prior to scheduled treatment. The EPG counts are performed according to Zimmerman Research SOP # NMEPG.99.01.
The placebo (DMSO), the commercially available drug, and the test anthelmintic compounds are administered in a 3 ml volume of DMSO by subcutaneous injection using a sterile syringe fitted with a sterile needle. The site of injection is clipped and swabbed with alcohol prior to injection. The animal is adequately immobilized for injection of the placebo, commercially available drug, or experimental compound.
Following treatment, the animals are observed at hourly intervals for the first 8 hours, then daily until necropsy. They are housed in a manner to prevent further nematode infections.
On the fifth day following treatment, fecal samples are obtained from each animal, properly labeled and used for EPG counts.
Seven days following treatment, all the sheep are weighed and humanely slaughtered in accordance with the Guide for the Care and Use of Laboratory Animals (DHEW Publication No. 86-23). Necropsy procedures are according to Zimmerman Research SOP # NCRGIH.00.01, Necropsy for Helminth Recovery, specifically for gastrointestinal nematodes. Fecal samples are taken for EPG counts during the sample collection process on this day.

A further assay concerns Caenorhabditis elegans. The assay can be described thus: HTS runs (initial and follow-up): mOD, % Run and visual score (Table 3). The method, then:
The nematicidal activity of anthelmintic Compositions 48-118 were determined in accordance with the procedure outlined in Example 2.

Several values for one entry are separate records, joined by “and”; a condition that tells them apart may be missing. Equal entries are not always repeated.

Consider 22,23-dihydroavermectin B1 [ivermectin], for which, in assay [1] (Ivermectin .2 mg/kg), the “% Change, Strongyles EPG-5 day vs EPG-pre, Total/Mean” value is given as 99.62%; the “Strongyles EPG-5 day (22-Jan), Total/Mean” value was 3.33 EPG; the “% Change, Strongyles EPG-7 day vs EPG-pre, Total/Mean” value came to 100.00%; the “Strongyles EPG-7 day (24-Jan), Total/Mean” value is listed as 0.00 EPG. In assay [1] (Ivermectin .2 mg/kg), the “Strongyles EPG-5 day (22-Jan)” value was 10 EPG and 0 EPG (2×); the “% Change, Strongyles EPG-7 day vs EPG-pre” value was 100.00%; the “Strongyles EPG-7 day (24-Jan)” value was 0 EPG. In assay [2] (Ivermectin 200 mcg/kg), the “% Change, Strongyles EPG-5 day vs EPG-pre, Total/Mean” value was determined as 100.00%; the “Strongyles EPG-5 day (22-May), Total/Mean” value is given as 0.00 EPG; the “% Change, Strongyles EPG-7 day vs EPG-pre, Total/Mean” value was 100.00%; the “Strongyles EPG-7 day (24-May), Total/Mean” value was 0.00 EPG. Also, in assay [2] (Ivermectin 200 mcg/kg), the “Strongyles EPG-5 day (22-May)” value was found to be 0 EPG; the “% Change, Strongyles EPG-7 day vs EPG-pre” value is 100.00%; the “Strongyles EPG-7 day (24-May)” value is 0 EPG.

For the compound `CCC1CCCCN1c1cc(Oc2ccc3oc4ccccc4c3c2)ncn1` (stereo not shown) [AKC 109], in assay [1] (AKC 109 1.4 mg/kg), the “% Change, Strongyles EPG-5 day vs EPG-pre, Total/Mean” value came to 76.43%; the “Strongyles EPG-5 day (22-Jan), Total/Mean” value amounted to 206.67 EPG; the “% Change, Strongyles EPG-7 day vs EPG-pre, Total/Mean” value is listed as 85.55%; the “Strongyles EPG-7 day (24-Jan), Total/Mean” value came to 126.67 EPG. In addition, in assay [1] (AKC 109 1.4 mg/kg, 1.4 mg/kg), the “Strongyles EPG-5 day (22-Jan)” value is 30 EPG and 590 EPG and 0 EPG; the “% Change, Strongyles EPG-7 day vs EPG-pre” value was 84.30% and −195.00% and 100.00%; the “Strongyles EPG-7 day (24-Jan)” value is 380 EPG and 0 EPG. In the assay on Caenorhabditis elegans (Follow-up HTS Run), the “Follow-up HTS Run % Run” value is recorded as 121%, the “Follow-up HTS Run Visual Score” value is reported as “L4/AD/B!” and the “Follow-up HTS Run mOD” value worked out at 163 mOD. For the same compound, in the assay on Caenorhabditis elegans (Initial HTS Run), the “Initial HTS Run % Run” value is reported as 132%, the “Initial HTS Run Visual Score” value came to 1AD/B! and the “Initial HTS Run mOD” value was 258 mOD. Also, in assay [2] (AKC 109 .8 mg/kg), the “% Change, Strongyles EPG-5 day vs EPG-pre, Total/Mean” value came out at 51.49%; the “Strongyles EPG-5 day (22-May), Total/Mean” value worked out at 245.00 EPG; the “% Change, Strongyles EPG-7 day vs EPG-pre, Total/Mean” value is 50.50%; the “Strongyles EPG-7 day (24-May), Total/Mean” value is reported as 250.00 EPG. Also, in assay [2] (AKC 109 .8 mg/kg), the “Strongyles EPG-5 day (22-May)” value was 360 EPG and 130 EPG; the “% Change, Strongyles EPG-7 day vs EPG-pre” value was 63.93% and 30.00%; the “Strongyles EPG-7 day (24-May)” value is 220 EPG and 280 EPG.

For the origin of these results see patent US20010049373A1, “Materials and methods for killing nematodes and nematode eggs” (priority 2000, published 2001).
